Earlier results, collected in patent US8586580B2, “2,7-substituted thieno[3,2-d] pyrimidine compounds as protein kinase inhibitors” (Korea Institute of Science and Technology, priority 2009, dated 2013).

Tested on: PC-3, BT-474, LoVo, NCI-H460, U-87 MG and BxPC-3 human tumor xenografts
Settings: in vivo

CN(c1ncccc1CNc1nc(Nc2ccc3c(c2)CC(=O)N3)ncc1C(F)(F)F)S(C)(=O)=O [PF-562271]
toxicity: No special toxicity has been observed
